{"source": "paper PMC5218480", "about": "(PLoS ONE, 2017)", "test_system": "MV-4-11 cells", "test": "Gene expression microarray analysis (Affymetrix PrimeView) and GSEA", "type": "cell-based, human", "set-up": "RFU PODN (11730768_x_at) / Fold change /veh PODN (11730768_x_at) / RFU LINC00158 (11744669_a_at) / Fold change /veh LINC00158 (11744669_a_at) / RFU DUSP10 (11751237_a_at) / Fold change /veh DUSP10 (11751237_a_at) / RFU ID3 (11757404_x_at) / Fold change /veh ID3 (11757404_x_at) / RFU PLEKHG5 (11737974_s_at) / Fold change /veh PLEKHG5 (11737974_s_at) / RFU LRRC4B (11730491_at) / Fold change /veh LRRC4B (11730491_at) / RFU GIMAP4 (11747438_a_at) / Fold change /veh GIMAP4 (11747438_a_at) / RFU KRT8 (11758183_x_at) / Fold change /veh KRT8 (11758183_x_at) / RFU CNN1 (11734310_a_at) / Fold change /veh CNN1 (11734310_a_at) / RFU VPS37D (11726825_at) / Fold change /veh VPS37D (11726825_at) / RFU C10orf10 (11716522_x_at) / Fold change /veh C10orf10 (11716522_x_at) / RFU KIR2DL2 /// KIR2DL4 /// KIR2DL5A /// KIR2DL5B /// KIR2DS1 /// KIR2DS2 /// KIR2DS3 /// KIR2DS4 /// KIR3DL3 /// KIR3DL3 /// KIR3DS1 (11738374_at) / Fold change /veh KIR2DL2 /// KIR2DL4 /// KIR2DL5A /// KIR2DL5B /// KIR2DS1 /// KIR2DS2 /// KIR2DS3 /// KIR2DS4 /// KIR3DL3 /// KIR3DL3 /// KIR3DS1 (11738374_at) / RFU C1QL1 (11718748_at) / Fold change /veh C1QL1 (11718748_at) / RFU TMPRSS4 (11747572_a_at) / Fold change /veh TMPRSS4 (11747572_a_at) / RFU HAMP (11756126_x_at) / Fold change /veh HAMP (11756126_x_at) / RFU RNFT2 (11725882_a_at) / Fold change /veh RNFT2 (11725882_a_at) / RFU NR4A2 (11747474_a_at) / Fold change /veh NR4A2 (11747474_a_at) / RFU ABCC12 (11746883_a_at) / Fold change /veh ABCC12 (11746883_a_at) / RFU TMEM136 (11760407_x_at) / Fold change /veh TMEM136 (11760407_x_at) / RFU CLDN22 /// WWC2 (11732394_at) / Fold change /veh CLDN22 /// WWC2 (11732394_at) / RFU HLA-DPB1 (11760878_x_at) / Fold change /veh HLA-DPB1 (11760878_x_at) / RFU SPINT1 (11716480_a_at) / Fold change /veh SPINT1 (11716480_a_at) / RFU GAP43 (11754022_s_at) / Fold change /veh GAP43 (11754022_s_at) / RFU A4GNT (11735810_at) / Fold change /veh A4GNT (11735810_at) / RFU PRB3 (11715151_x_at) / Fold change /veh PRB3 (11715151_x_at) / RFU TUBB4B (11761932_at) / Fold change /veh TUBB4B (11761932_at) / RFU CAPN14 (11732068_a_at) / Fold change /veh CAPN14 (11732068_a_at) / RFU TMCC2 (11721928_a_at) / Fold change /veh TMCC2 (11721928_a_at) / RFU IRGQ (11745062_a_at) / Fold change /veh IRGQ (11745062_a_at) / RFU FAM174B (11720279_a_at) / Fold change /veh FAM174B (11720279_a_at) / RFU TMPRSS4 (11748680_a_at) / Fold change /veh TMPRSS4 (11748680_a_at) / RFU FAM212B (11763350_a_at) / Fold change /veh FAM212B (11763350_a_at) / RFU PLEKHG5 (11743358_a_at) / Fold change /veh PLEKHG5 (11743358_a_at) / RFU ZSCAN30 (11745921_a_at) / Fold change /veh ZSCAN30 (11745921_a_at) / RFU CMKLR1 (11741424_a_at) / Fold change /veh CMKLR1 (11741424_a_at) / RFU LOC101060620 /// MAPK8IP1 (11723275_at) / Fold change /veh LOC101060620 /// MAPK8IP1 (11723275_at) / RFU SPTSSB (11747773_x_at) / Fold change /veh SPTSSB (11747773_x_at) / RFU PRSS12 (11739890_at) / Fold change /veh PRSS12 (11739890_at) / RFU BIN1 (11741810_x_at) / Fold change /veh BIN1 (11741810_x_at) / RFU WNT11 (11732464_a_at) / Fold change /veh WNT11 (11732464_a_at) / RFU C10orf10 (11716521_a_at) / Fold change /veh C10orf10 (11716521_a_at) / RFU C5orf56 (11738089_at) / Fold change /veh C5orf56 (11738089_at) / RFU CYB561 (11721691_x_at) / Fold change /veh CYB561 (11721691_x_at) / RFU ANKRD19P (11752326_a_at) / Fold change /veh ANKRD19P (11752326_a_at) / RFU OR2T12 /// OR2T33 /// OR2T8 (11738714_s_at) / Fold change /veh OR2T12 /// OR2T33 /// OR2T8 (11738714_s_at) / RFU VCAN (11748164_a_at) / Fold change /veh VCAN (11748164_a_at) / RFU JSRP1 (11732532_at) / Fold change /veh JSRP1 (11732532_at) / RFU KRTAP10-11 (11738290_x_at) / Fold change /veh KRTAP10-11 (11738290_x_at) / RFU MYO3A (11730013_a_at) / Fold change /veh MYO3A (11730013_a_at) / RFU EBF3 (11725865_a_at) / Fold change /veh EBF3 (11725865_a_at) / RFU CAMK2N1 (11719241_x_at) / Fold change /veh CAMK2N1 (11719241_x_at) / RFU C5orf56 (11738088_a_at) / Fold change /veh C5orf56 (11738088_a_at) / RFU OLFML3 (11715873_a_at) / Fold change /veh OLFML3 (11715873_a_at) / RFU LOC100653217 /// NTM (11731650_a_at) / Fold change /veh LOC100653217 /// NTM (11731650_a_at) / RFU MAPK11 (11762145_a_at) / Fold change /veh MAPK11 (11762145_a_at) / RFU FIZ1 (11724087_x_at) / Fold change /veh FIZ1 (11724087_x_at) / RFU OASL (11726364_x_at) / Fold change /veh OASL (11726364_x_at) / RFU SOX15 (11748057_x_at) / Fold change /veh SOX15 (11748057_x_at) / RFU CD79A (11719716_a_at) / Fold change /veh CD79A (11719716_a_at) / RFU HIST1H1D (11736915_at) / Fold change /veh HIST1H1D (11736915_at) / RFU CASKIN2 (11723855_a_at) / Fold change /veh CASKIN2 (11723855_a_at) / RFU LOC730098 (11760151_x_at) / Fold change /veh LOC730098 (11760151_x_at) / RFU OR4N2 (11742367_at) / Fold change /veh OR4N2 (11742367_at) / RFU PRRT2 (11749266_a_at) / Fold change /veh PRRT2 (11749266_a_at) / RFU SNX32 (11753110_a_at) / Fold change /veh SNX32 (11753110_a_at) / RFU CDHR5 (11726645_a_at) / Fold change /veh CDHR5 (11726645_a_at) / RFU RCAN1 (11760418_a_at) / Fold change /veh RCAN1 (11760418_a_at) / RFU FAM167A (11723789_a_at) / Fold change /veh FAM167A (11723789_a_at) / RFU FAM26E (11764081_at) / Fold change /veh FAM26E (11764081_at) / RFU ISYNA1 (11749810_s_at) / Fold change /veh ISYNA1 (11749810_s_at) / RFU ACY1 (11761880_at) / Fold change /veh ACY1 (11761880_at) / RFU 11764098_at / Fold change /veh 11764098_at / RFU SAMD14 (11745864_x_at) / Fold change /veh SAMD14 (11745864_x_at) / RFU NPB (11741838_a_at) / Fold change /veh NPB (11741838_a_at) / RFU TMPRSS6 (11731388_a_at) / Fold change /veh TMPRSS6 (11731388_a_at) / RFU KRTAP10-2 (11738614_at) / Fold change /veh KRTAP10-2 (11738614_at) / RFU ARHGAP8 /// PRR5-ARHGAP8 (11727945_x_at) / Fold change /veh ARHGAP8 /// PRR5-ARHGAP8 (11727945_x_at) / RFU KRTAP5-7 /// NADSYN1 (11734609_at) / Fold change /veh KRTAP5-7 /// NADSYN1 (11734609_at) / RFU RASL12 (11751679_a_at) / Fold change /veh RASL12 (11751679_a_at) / RFU CDKN2B (11736163_a_at) / Fold change /veh CDKN2B (11736163_a_at) / RFU PRF1 (11729649_at) / Fold change /veh PRF1 (11729649_at) / RFU, ZNF638 /// ZNF638-IT1 / Fold change vs veh, ZNF638 /// ZNF638-IT1 / RFU, PANK3 / Fold change vs veh, PANK3 / RFU, SH3YL1 / Fold change vs veh, SH3YL1 / RFU, ZEB2 / Fold change vs veh, ZEB2 / RFU, NRIP1 / Fold change vs veh, NRIP1 / RFU, PTTG1IP / Fold change vs veh, PTTG1IP / RFU, CAPN2 / Fold change vs veh, CAPN2 / RFU, MED14 / Fold change vs veh, MED14 / RFU, SNORA58 / Fold change vs veh, SNORA58 / RFU, C1orf63 / Fold change vs veh, C1orf63 / RFU, LRRFIP1 / Fold change vs veh, LRRFIP1 / RFU, NDUFAF7 / Fold change vs veh, NDUFAF7 / RFU, SLC12A2 / Fold change vs veh, SLC12A2 / RFU, IBTK / Fold change vs veh, IBTK / RFU, ESF1 / Fold change vs veh, ESF1 / Fold change vs veh, TMEM50B / RFU, TAOK1 / Fold change vs veh, TAOK1 / RFU, ACBD3 / Fold change vs veh, ACBD3 / RFU, TMA16 / Fold change vs veh, TMA16 / RFU, RWDD3 / Fold change vs veh, RWDD3 / RFU, BCAT1 / Fold change vs veh, BCAT1 / RFU, EDEM3 / Fold change vs veh, EDEM3 / RFU, TMEM33 / Fold change vs veh, TMEM33 / RFU, WDR75 / Fold change vs veh, WDR75 / RFU, AHCTF1 / Fold change vs veh, AHCTF1 / RFU, TFRC / Fold change vs veh, TFRC / RFU, ZDHHC17 / Fold change vs veh, ZDHHC17 / RFU, NOM1 / Fold change vs veh, NOM1 / RFU, ARL8B / Fold change vs veh, ARL8B / RFU, ZBTB11 / Fold change vs veh, ZBTB11 / RFU, TAMM41 / Fold change vs veh, TAMM41 / RFU, KIAA1704 /// LOC100996395 / Fold change vs veh, KIAA1704 /// LOC100996395 / RFU, ING1 / Fold change vs veh, ING1 / RFU, TRMT61B / Fold change vs veh, TRMT61B / RFU, FUBP3 / Fold change vs veh, FUBP3 / RFU, TP53 / Fold change vs veh, TP53 / RFU, TNKS2 / Fold change vs veh, TNKS2 / RFU, ZFP14 / Fold change vs veh, ZFP14 / RFU, ACTR2 / Fold change vs veh, ACTR2 / RFU, PPP3R1 / Fold change vs veh, PPP3R1 / RFU, PIK3R1 / Fold change vs veh, PIK3R1 / RFU, HNRNPA1 / Fold change vs veh, HNRNPA1 / RFU, RNF170 / Fold change vs veh, RNF170 / RFU, ZNF28 / Fold change vs veh, ZNF28 / RFU, RNGTT / Fold change vs veh, RNGTT / RFU, OGT / Fold change vs veh, OGT / RFU, BRD1 / Fold change vs veh, BRD1 / RFU, MARS / Fold change vs veh, MARS / RFU, ZNF655 / Fold change vs veh, ZNF655 / RFU, FAHD1 / Fold change vs veh, FAHD1 / RFU, BDP1 / Fold change vs veh, BDP1 / RFU, LRRCC1 / Fold change vs veh, LRRCC1 / RFU, ARID1A / Fold change vs veh, ARID1A / RFU, ZNF146 / Fold change vs veh, ZNF146 / RFU, ZNF330 / Fold change vs veh, ZNF330 / RFU, GPN3 / Fold change vs veh, GPN3 / RFU, C9orf123 / Fold change vs veh, C9orf123 / RFU, N4BP2L2 / Fold change vs veh, N4BP2L2 / RFU, ARFIP1 / Fold change vs veh, ARFIP1 / RFU, FAM179B / Fold change vs veh, FAM179B / RFU, BCL10 / Fold change vs veh, BCL10 / RFU, UHRF1BP1L / Fold change vs veh, UHRF1BP1L / RFU, BET1 / Fold change vs veh, BET1 / RFU, CNOT2 / Fold change vs veh, CNOT2 / RFU, ZNF268 / Fold change vs veh, ZNF268 / Fold change vs veh, ZNF507 / RFU, DGCR2 / Fold change vs veh, DGCR2 / RFU, WDSUB1 / Fold change vs veh, WDSUB1 / Fold change vs veh, HSP90B1 /// MIR3652 / RFU, ADSS / Fold change vs veh, ADSS / RFU, GK / Fold change vs veh, GK / RFU, ZNF148 / Fold change vs veh, ZNF148 / RFU, TAF9 / Fold change vs veh, TAF9 / RFU, SLC1A5 / Fold change vs veh, SLC1A5 / RFU, SLMO2 / Fold change vs veh, SLMO2 / RFU, ABCC4 / Fold change vs veh, ABCC4 / RFU, LOC101060439 /// RAP1B / Fold change vs veh, LOC101060439 /// RAP1B / RFU, RFX7 / Fold change vs veh, RFX7 / RFU, GTPBP10 / Fold change vs veh, GTPBP10 / RFU, CNEP1R1 / Fold change vs veh, CNEP1R1 / RFU, BIVM-ERCC5 /// ERCC5 / Fold change vs veh, BIVM-ERCC5 /// ERCC5 / RFU, ILF3 / Fold change vs veh, ILF3 / RFU 11762660_at / Fold change /veh 11762660_at / RFU VCAN (11757783_s_at) / Fold change /veh VCAN (11757783_s_at) / RFU DDX43 (11728927_at) / Fold change /veh DDX43 (11728927_at) / RFU KRT8 (11758188_x_at) / Fold change /veh KRT8 (11758188_x_at) / RFU NKD1 (11759106_at) / Fold change /veh NKD1 (11759106_at) / RFU SRD5A1 (11742802_a_at) / Fold change /veh SRD5A1 (11742802_a_at) / RFU TPSAB1 /// TPSB2 (11721975_s_at) / Fold change /veh TPSAB1 /// TPSB2 (11721975_s_at) / RFU GSTM3 (11746129_a_at) / Fold change /veh GSTM3 (11746129_a_at) / RFU IL23R (11737362_x_at) / Fold change /veh IL23R (11737362_x_at) / RFU TMEM51 (11727254_a_at) / Fold change /veh TMEM51 (11727254_a_at) / RFU PIWIL2 (11732686_x_at) / Fold change /veh PIWIL2 (11732686_x_at) / RFU ORM1 (11744905_x_at) / Fold change /veh ORM1 (11744905_x_at) / RFU CCDC152 (11743942_at) / Fold change /veh CCDC152 (11743942_at) / RFU ECM1 (11717891_a_at) / Fold change /veh ECM1 (11717891_a_at) / RFU IL23R (11748794_a_at) / Fold change /veh IL23R (11748794_a_at) / RFU TNFAIP8L3 (11732012_x_at) / Fold change /veh TNFAIP8L3 (11732012_x_at) / RFU MBOAT4 (11741988_at) / Fold change /veh MBOAT4 (11741988_at) / RFU 11764193_at / Fold change /veh 11764193_at / RFU TMEM53 (11763286_at) / Fold change /veh TMEM53 (11763286_at) / RFU MAGEB2 (11727129_at) / Fold change /veh MAGEB2 (11727129_at) / RFU TMEM200A (11744735_a_at) / Fold change /veh TMEM200A (11744735_a_at) / RFU CCDC152 (11751479_a_at) / Fold change /veh CCDC152 (11751479_a_at) / RFU FAM211A (11726209_a_at) / Fold change /veh FAM211A (11726209_a_at) / RFU RGS16 (11746705_a_at) / Fold change /veh RGS16 (11746705_a_at) / RFU VCAN (11755009_s_at) / Fold change /veh VCAN (11755009_s_at) / RFU RHOB (11743442_s_at) / Fold change /veh RHOB (11743442_s_at) / RFU RGS16 (11720943_a_at) / Fold change /veh RGS16 (11720943_a_at) / RFU RGS16 (11720944_at) / Fold change /veh RGS16 (11720944_at) / RFU, VPS4B / Fold change vs veh, VPS4B / RFU, CREB1 / Fold change vs veh, CREB1 / RFU, DNAJC13 / Fold change vs veh, DNAJC13 / RFU, GNAQ / Fold change vs veh, GNAQ / RFU, CDK5R1 / Fold change vs veh, CDK5R1 / RFU, ZRANB3 / Fold change vs veh, ZRANB3 / RFU, CUL4A / Fold change vs veh, CUL4A / RFU, CCNY / Fold change vs veh, CCNY / RFU, UFL1 / Fold change vs veh, UFL1 / RFU, COG3 / Fold change vs veh, COG3 / RFU, DIAPH2 / Fold change vs veh, DIAPH2 / RFU, SKA2 / Fold change vs veh, SKA2 / RFU, AFF3 / Fold change vs veh, AFF3 / RFU, LMF1 / Fold change vs veh, LMF1 / RFU, IPO11 / Fold change vs veh, IPO11 / RFU, DFFB / Fold change vs veh, DFFB / RFU, FOXP1 / Fold change vs veh, FOXP1 / RFU, CARD8 / Fold change vs veh, CARD8 / RFU, STRN3 / Fold change vs veh, STRN3 / RFU, ADK / Fold change vs veh, ADK / RFU, RASSF2 / Fold change vs veh, RASSF2 / RFU, WIPF1 / Fold change vs veh, WIPF1 / RFU, LARP1B / Fold change vs veh, LARP1B / RFU, RASA1 / Fold change vs veh, RASA1 / RFU, RB1 / Fold change vs veh, RB1 / RFU, PPFIA1 / Fold change vs veh, PPFIA1 / RFU, MAT2A / Fold change vs veh, MAT2A / RFU, CCT5 / Fold change vs veh, CCT5 / RFU, WDR92 / Fold change vs veh, WDR92 / RFU, CUX1 / Fold change vs veh, CUX1 / RFU, TTC7A / Fold change vs veh, TTC7A / RFU, TMEM135 / Fold change vs veh, TMEM135 / RFU, DEPTOR / Fold change vs veh, DEPTOR / RFU, CPM / Fold change vs veh, CPM / RFU, DNAJB6 / Fold change vs veh, DNAJB6 / RFU, CACNA2D3 / Fold change vs veh, CACNA2D3 / RFU, DTX4 / Fold change vs veh, DTX4 / RFU, TFCP2 / Fold change vs veh, TFCP2 / RFU, GMCL1 /// GMCL1P1 / Fold change vs veh, GMCL1 /// GMCL1P1 / RFU, AEBP2 / Fold change vs veh, AEBP2 / RFU, SNHG1 /// SNORD22 /// SNORD25 /// SNORD26 /// SNORD27 /// SNORD28 /// SNORD29 /// SNORD31 / Fold change vs veh, SNHG1 /// SNORD22 /// SNORD25 /// SNORD26 /// SNORD27 /// SNORD28 /// SNORD29 /// SNORD31 / Fold change (Aza/veh), C12orf56 (ProbeSet 11735607_a_at) / Fold change (ACY-1035/veh), C12orf56 (ProbeSet 11735607_a_at) / Fold change (Aza/veh), FGFR1OP (ProbeSet 11751329_s_at) / Fold change (ACY-1035/veh), FGFR1OP (ProbeSet 11751329_s_at) / Fold change (Aza/veh), VPS36 (ProbeSet 11739960_a_at) / Fold change (ACY-1035/veh), VPS36 (ProbeSet 11739960_a_at) / RFU SYPL1 (11715823_x_at) / Fold change /veh SYPL1 (11715823_x_at) / RFU IGFBP7 (11715501_s_at) / Fold change /veh IGFBP7 (11715501_s_at) / RFU REEP3 (11722064_at) / Fold change /veh REEP3 (11722064_at) / RFU IGLL1 (11728026_x_at) / Fold change /veh IGLL1 (11728026_x_at): dose or concentration left out as unconfirmed", "details": "MV-4-11 cells, 48 hours", "data": [{"smiles": "Nc1ncn([C@@H]2O[C@H](CO)[C@@H](O)[C@H]2O)c(=O)n1", "note": "[azacitidine]", "values": [{"measurement": "RFU RCAN1 (11760418_a_at)", "value": 18.64, "unit": "RFU"}]}]}
